From patent US20030086873A1, “Myocardial imaging agent and preparation method thereof” (priority 2001, published 2003)

Experiments:
Assay type in all cases: in vivo
[1] = Dynamic SPECT imaging and biological distribution in dogs after intravenous injection; details: for Heart biological distribution / Kidneys biological distribution / Liver biological distribution / Lungs biological distribution: i.v.
Description: (§1) Dogs were intravenously injected with [^99mTc(CO)3(MIBI)3]^+ or [^99mTc(MIBI)6][…]at dose of […]. Immediately following injection, dynamic photography for up to 120 min was performed using a Toshiba GCA 7200A two-probe SPECT and a low energy parallel aperture regular collimator. Time—radioactivity curves were also collected for the heart, liver, lungs, and kidneys. Target/non-target radioactivity ratios were calculated, and fall body imaging was performed separately at different times. The biological distributions of the imaging agents in the body were analyzed. Vein blood samples were collected separately at different times, and the dynamics of the blood clearance was analyzed. Flat myocardial imaging was conducted separately at different times, with myocardial tomographic imaging at 120 minutes post injection.

[2] = Blood clearance kinetics in dogs (vein blood samples); details: intravenous administration, secondary model
Description: as §1

[3] = Biological distribution in the bodies of Kunming mice after caudal vein injection
Description: The complexes [^99mTc(CO)3(OH2)3]^+ and [^99mTc(CO)3(MIBI)3]^+ prepared in Example 1 were separately injected in the caudal vein of Kunming mice. The experiment was conducted on three mice within each time period, and the injection's activity was 925 KBq. The radioactivity of individual organs's tissue was measured at 5, 15, 30, and 60 minutes after the injection, and the results are represented by radioactive uptake rate per gram of tissue.
The results of the distribution of [^99mTc(CO)3(OH2)3]^+ in the mice's bodies are included in Tables 2; the results for [^99mTc(CO)3(MIBI)3]^+ are presented in Table 3. The value “% ID/g” is the percentage of the injection's total radioactivity that each gram of tissue accounts for i.e., the radioactive uptake rate per gram of tissue, with ID standing for “injected dose.”

COC(C)(C)CN=[C]=[99Tc+](=[C]=O)(=[C]=O)(=[C]=O)(=[C]=NCC(C)(C)OC)=[C]=NCC(C)(C)OC [[^99mTc(CO)3(MIBI)3]^+]
Target/Non-Target Uptake Ratio Heart/Kidneys ([1]; 2 Minutes): 0.56 ± 0.13 | Target/Non-Target Uptake Ratio Heart/Liver ([1]; 2 Minutes): 1 ± 0.18 | Target/Non-Target Uptake Ratio Heart/Lungs ([1]; 2 Minutes): 2.51 ± 0.25 | Target/Non-Target Uptake Ratio Heart/Kidneys ([1]; 5 Minutes): 0.53 ± 0.12 | Target/Non-Target Uptake Ratio Heart/Liver ([1]; 5 Minutes): 0.98 ± 0.11 | Target/Non-Target Uptake Ratio Heart/Lungs ([1]; 5 Minutes): 2.67 ± 0.27 | Target/Non-Target Uptake Ratio Heart/Kidneys ([1]; 10 Minutes): 0.53 ± 0.1 | Target/Non-Target Uptake Ratio Heart/Liver ([1]; 10 Minutes): 0.92 ± 0.13 | Target/Non-Target Uptake Ratio Heart/Lungs ([1]; 10 Minutes): 2.6 ± 0.26 | Target/Non-Target Uptake Ratio Heart/Kidneys ([1]; 20 Minutes): 0.59 ± 0.1 | Target/Non-Target Uptake Ratio Heart/Liver ([1]; 20 Minutes): 0.97 ± 0.1 | Target/Non-Target Uptake Ratio Heart/Lungs ([1]; 20 Minutes): 2.8 ± 0.44 | Target/Non-Target Uptake Ratio Heart/Kidneys ([1]; 30 Minutes): 0.62 ± 0.15 | Target/Non-Target Uptake Ratio Heart/Liver ([1]; 30 Minutes): 1.02 ± 0.11 | Target/Non-Target Uptake Ratio Heart/Lungs ([1]; 30 Minutes): 2.96 ± 0.43 | Target/Non-Target Uptake Ratio Heart/Kidneys ([1]; 40 Minutes): 0.58 ± 0.08 | Target/Non-Target Uptake Ratio Heart/Liver ([1]; 40 Minutes): 1.06 ± 0.17 | Target/Non-Target Uptake Ratio Heart/Lungs ([1]; 40 Minutes): 3 ± 0.51 | Target/Non-Target Uptake Ratio Heart/Kidneys ([1]; 60 Minutes): 0.6 ± 0.06 | Target/Non-Target Uptake Ratio Heart/Liver ([1]; 60 Minutes): 1.22 ± 0.2 | Target/Non-Target Uptake Ratio Heart/Lungs ([1]; 60 Minutes): 3.05 ± 0.52 | Target/Non-Target Uptake Ratio Heart/Kidneys ([1]; 90 Minutes): 0.6 ± 0.06 | Target/Non-Target Uptake Ratio Heart/Liver ([1]; 90 Minutes): 1.25 ± 0.33 | Target/Non-Target Uptake Ratio Heart/Lungs ([1]; 90 Minutes): 3.1 ± 0.49 | Target/Non-Target Uptake Ratio Heart/Kidneys ([1]; 120 Minutes): 0.63 ± 0.04 | Target/Non-Target Uptake Ratio Heart/Liver ([1]; 120 Minutes): 1.37 ± 0.26 | Target/Non-Target Uptake Ratio Heart/Lungs ([1]; 120 Minutes): 3.09 ± 0.56 | Heart biological distribution ([1]; 10 Minutes): 3.80 ± 0.44 % ID/g | Kidneys biological distribution ([1]; 10 Minutes): 15.33 ± 0.75 % ID/g | Liver biological distribution ([1]; 10 Minutes): 12.93 ± 0.70 % ID/g | Lungs biological distribution ([1]; 10 Minutes): 5.13 ± 0.06 % ID/g | Heart biological distribution ([1]; 20 Minutes): 3.97 ± 0.50 % ID/g | Kidneys biological distribution ([1]; 20 Minutes): 14.70 ± 1.14 % ID/g | Liver biological distribution ([1]; 20 Minutes): 14.00 ± 1.78 % ID/g | Lungs biological distribution ([1]; 20 Minutes): 4.70 ± 0.20 % ID/g | Heart biological distribution ([1]; 30 Minutes): 4.00 ± 0.30 % ID/g | Kidneys biological distribution ([1]; 30 Minutes): 14.53 ± 1.86 % ID/g | Liver biological distribution ([1]; 30 Minutes): 14.27 ± 1.97 % ID/g | Lungs biological distribution ([1]; 30 Minutes): 4.70 ± 0.26 % ID/g | Heart biological distribution ([1]; 40 Minutes): 3.73 ± 0.51 % ID/g | Kidneys biological distribution ([1]; 40 Minutes): 13.27 ± 1.65 % ID/g | Liver biological distribution ([1]; 40 Minutes): 16.37 ± 2.47 % ID/g | Lungs biological distribution ([1]; 40 Minutes): 4.80 ± 0.72 % ID/g | Heart biological distribution ([1]; 60 Minutes): 3.63 ± 0.49 % ID/g | Kidneys biological distribution ([1]; 60 Minutes): 12.23 ± 1.00 % ID/g | Liver biological distribution ([1]; 60 Minutes): 17.53 ± 2.85 % ID/g | Lungs biological distribution ([1]; 60 Minutes): 4.40 ± 0.44 % ID/g | Heart biological distribution ([1]; 90 Minutes): 3.77 ± 0.64 % ID/g | Kidneys biological distribution ([1]; 90 Minutes): 12.37 ± 1.75 % ID/g | Liver biological distribution ([1]; 90 Minutes): 19.67 ± 3.72 % ID/g | Lungs biological distribution ([1]; 90 Minutes): 4.20 ± 0.26 % ID/g | Heart biological distribution ([1]; 120 Minutes): 3.73 ± 0.58 % ID/g | Kidneys biological distribution ([1]; 120 Minutes): 12.40 ± 3.48 % ID/g | Liver biological distribution ([1]; 120 Minutes): 21.03 ± 2.78 % ID/g | Lungs biological distribution ([1]; 120 Minutes): 4.07 ± 0.15 % ID/g | Radioactivity in the liver compared with [^99mTc(MIBI)6]^+ ([1]; imaging, in words): clearly lower | Liver time-radioactivity curve relative to the myocardial curve ([1]; in words): lower than the myocardial curve | CL (blood clearance) [2]: 401.33 ± 73.51 mL/h | T(α)⅓ of blood clearance curve [2]: 1.33 ± 0.12 min | T(β)½ of blood clearance curve [2]: 102.33 ± 25.58 min | Target/Non-Target Uptake Ratio Heart/Blood ([3]; 5 Minutes): 20.99 | Target/Non-Target Uptake Ratio Heart/Liver ([3]; 5 Minutes): 1.88 | Target/Non-Target Uptake Ratio Heart/Lungs ([3]; 5 Minutes): 3.51 | Blood radioactive uptake per gram of tissue ([3]; 5 Minutes after injection): 1.03 ± 0.21 % ID/g | Bones radioactive uptake per gram of tissue ([3]; 5 Minutes after injection): 3.72 ± 0.84 % ID/g | Brain radioactive uptake per gram of tissue ([3]; 5 Minutes after injection): 0.18 ± 0.02 % ID/g | Heart radioactive uptake per gram of tissue ([3]; 5 Minutes after injection): 21.62 ± 2.84 % ID/g | Kidneys radioactive uptake per gram of tissue ([3]; 5 Minutes after injection): 57.90 ± 1.80 % ID/g | Liver radioactive uptake per gram of tissue ([3]; 5 Minutes after injection): 11.48 ± 0.88 % ID/g | Lungs radioactive uptake per gram of tissue ([3]; 5 Minutes after injection): 6.16 ± 0.48 % ID/g | Muscles radioactive uptake per gram of tissue ([3]; 5 Minutes after injection): 7.08 ± 0.52 % ID/g | Spleen radioactive uptake per gram of tissue ([3]; 5 Minutes after injection): 6.26 ± 1.29 % ID/g | Target/Non-Target Uptake Ratio Heart/Blood ([3]; 15 Minutes): 64.47 | Target/Non-Target Uptake Ratio Heart/Liver ([3]; 15 Minutes): 2.49 | Target/Non-Target Uptake Ratio Heart/Lungs ([3]; 15 Minutes): 4.98 | Blood radioactive uptake per gram of tissue ([3]; 15 Minutes after injection): 0.32 ± 0.05 % ID/g | Bones radioactive uptake per gram of tissue ([3]; 15 Minutes after injection): 2.10 ± 0.10 % ID/g | Brain radioactive uptake per gram of tissue ([3]; 15 Minutes after injection): 0.18 ± 0.02 % ID/g | Heart radioactive uptake per gram of tissue ([3]; 15 Minutes after injection): 20.63 ± 3.89 % ID/g | Kidneys radioactive uptake per gram of tissue ([3]; 15 Minutes after injection): 33.66 ± 0.42 % ID/g | Liver radioactive uptake per gram of tissue ([3]; 15 Minutes after injection): 8.28 ± 0.90 % ID/g | Lungs radioactive uptake per gram of tissue ([3]; 15 Minutes after injection): 4.14 ± 0.90 % ID/g | Muscles radioactive uptake per gram of tissue ([3]; 15 Minutes after injection): 3.78 ± 0.88 % ID/g | Spleen radioactive uptake per gram of tissue ([3]; 15 Minutes after injection): 3.84 ± 0.90 % ID/g | Target/Non-Target Uptake Ratio Heart/Blood ([3]; 30 Minutes): 86.54 | Target/Non-Target Uptake Ratio Heart/Liver ([3]; 30 Minutes): 3.23 | Target/Non-Target Uptake Ratio Heart/Lungs ([3]; 30 Minutes): 5.34 | Blood radioactive uptake per gram of tissue ([3]; 30 Minutes after injection): 0.24 ± 0.07 % ID/g | Bones radioactive uptake per gram of tissue ([3]; 30 Minutes after injection): 1.94 ± 0.29 % ID/g | Brain radioactive uptake per gram of tissue ([3]; 30 Minutes after injection): 0.12 ± 0.01 % ID/g | Heart radioactive uptake per gram of tissue ([3]; 30 Minutes after injection): 20.77 ± 1.60 % ID/g | Kidneys radioactive uptake per gram of tissue ([3]; 30 Minutes after injection): 23.94 ± 2.11 % ID/g | Liver radioactive uptake per gram of tissue ([3]; 30 Minutes after injection): 6.44 ± 1.03 % ID/g | Lungs radioactive uptake per gram of tissue ([3]; 30 Minutes after injection): 3.89 ± 0.54 % ID/g | Muscles radioactive uptake per gram of tissue ([3]; 30 Minutes after injection): 6.14 ± 0.78 % ID/g | Spleen radioactive uptake per gram of tissue ([3]; 30 Minutes after injection): 2.84 ± 0.41 % ID/g | Target/Non-Target Uptake Ratio Heart/Blood ([3]; 60 Minutes): 149.15 | Target/Non-Target Uptake Ratio Heart/Liver ([3]; 60 Minutes): 4.13 | Target/Non-Target Uptake Ratio Heart/Lungs ([3]; 60 Minutes): 6.06 | Blood radioactive uptake per gram of tissue ([3]; 60 Minutes after injection): 0.13 ± 0.04 % ID/g | Bones radioactive uptake per gram of tissue ([3]; 60 Minutes after injection): 1.42 ± 0.31 % ID/g | Brain radioactive uptake per gram of tissue ([3]; 60 Minutes after injection): 0.08 ± 0.01 % ID/g | Heart radioactive uptake per gram of tissue ([3]; 60 Minutes after injection): 19.39 ± 0.91 % ID/g | Kidneys radioactive uptake per gram of tissue ([3]; 60 Minutes after injection): 11.30 ± 0.73 % ID/g | Liver radioactive uptake per gram of tissue ([3]; 60 Minutes after injection): 4.69 ± 0.34 % ID/g | Lungs radioactive uptake per gram of tissue ([3]; 60 Minutes after injection): 3.20 ± 0.85 % ID/g | Muscles radioactive uptake per gram of tissue ([3]; 60 Minutes after injection): 4.42 ± 0.36 % ID/g | Spleen radioactive uptake per gram of tissue ([3]; 60 Minutes after injection): 1.62 ± 0.32 % ID/g | Concentration in livers ([3]; in words): comparatively low | Specific concentration in tissues / heart ([3]; in words): apparent concentration | heart:blood ratio compared with [^99mTc(MIBI)6]^+ ([3]; in words): comparable | heart:liver ratio compared with [^99mTc(MIBI)6]^+ ([3]; in words): higher | Radioactive retention ([3]; within 60 minutes, in words): good radioactive retention
